Where two headings read alike, the source gives them in different places.
Target: T1, human GLP-1 receptor (Homo sapiens, UniProt P43220)
T1 construct: expressed in transfected cells; host or cells: HEK-293
Experiment: cAMP response of HEK-293 cells stably expressing human GLP-1 receptor (HTRF)
Format: cell-based
Conditions: read-out: EC50 hGLP-1R
Protocol: For preparation, cells were split into T175 culture flasks and grown overnight to near confluency in medium (DMEM/10% FBS). Medium was then removed and cells washed with PBS lacking calcium and magnesium, followed by proteinase treatment with accutase (Sigma-Aldrich cat. no. A6964). Detached cells were washed and resuspended in assay buffer (1×HBSS; 20 mM HEPES, 0.1% BSA, 2 mM IBMX) and cellular density determined. They were then diluted to 400000 cells/ml and 25 μl-aliquots dispensed into the wells of 96-well plates. For measurement, 25 μl of test compound in assay buffer was added to the wells, followed by incubation for 30 minutes at room temperature. […] Potencies of peptidic compounds at the GLP-1, glucagon and GIP receptors were determined by exposing cells expressing human glucagon receptor (hGlucagon R), human GIP receptor (hGIP-R) or human GLP-1 receptor (hGLP-1R) to the listed compounds at increasing concentrations and measuring the formed cAMP as described in Methods.

T1 sequence (P43220 24-463): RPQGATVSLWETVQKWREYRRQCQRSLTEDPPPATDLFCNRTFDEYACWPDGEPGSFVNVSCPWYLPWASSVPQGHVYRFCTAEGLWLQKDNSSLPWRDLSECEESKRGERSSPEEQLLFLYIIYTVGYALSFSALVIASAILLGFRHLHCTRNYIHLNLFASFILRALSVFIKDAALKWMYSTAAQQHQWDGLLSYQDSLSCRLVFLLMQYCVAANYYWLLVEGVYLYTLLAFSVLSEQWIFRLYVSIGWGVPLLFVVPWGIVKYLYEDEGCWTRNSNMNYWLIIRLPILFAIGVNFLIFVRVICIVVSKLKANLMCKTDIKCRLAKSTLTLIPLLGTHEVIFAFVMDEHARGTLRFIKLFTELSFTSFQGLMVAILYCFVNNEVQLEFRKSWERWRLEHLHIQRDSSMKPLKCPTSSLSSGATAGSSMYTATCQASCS

For `CCCCCCCCCCCCCCCCCC(=O)N[C@@H](CCC(=O)NCCOCCOCC(=O)NCCOCCOCC(=O)NCCCC[C@H](NC(=O)[C@H](CCC(N)=O)NC(=O)[C@H](CCCCN)NC(=O)[C@H](CO)NC(=O)[C@H](CC(C)C)NC(=O)[C@H](CC(=O)O)NC(=O)[C@H](CO)NC(=O)[C@@H](NC(=O)[C@H](Cc1ccccc1)NC(=O)[C@@H](NC(=O)CNC(=O)[C@H](CCC(N)=O)NC(=O)[C@@H](CO)NC(=O)[C@@H](N)Cc1c[nH]cn1)[C@@H](C)O)[C@@H](C)O)C(=O)N[C@@H](CC(=O)O)C(=O)N[C@@H](CCC(=O)O)C(=O)N[C@@H](CCC(=O)O)C(=O)N[C@@H](C)C(=O)N[C@@H](C)C(=O)N[C@@H](CCCNC(=N)N)C(=O)N[C@@H](CC(C)C)C(=O)N[C@@H](Cc1ccccc1)C(=O)N[C@H](C(=O)N[C@@H](CCC(=O)O)C(=O)N[C@@H](Cc1c[nH]c2ccccc12)C(=O)N[C@@H](CC(C)C)C(=O)NC(C)(C)C(=O)N[C@@H](C)C(=O)NCC(=O)NCC(=O)N1CCC[C@H]1C(=O)N[C@@H](CO)C(=O)N[C@@H](CO)C(=O)NCC(=O)N[C@@H](C)C(=O)N1CCC[C@H]1C(=O)N1CCC[C@H]1C(=O)N1CCC[C@H]1C(=O)N[C@@H](CO)C(N)=O)[C@@H](C)CC)C(=O)O` [SEQ ID NO: 21, H-dSer-Q-G-T-F-T-S-D-L-S-K-Q-K(AEEAc-AEEAc- E-x70)-D-E-E-A-A-R-L-F-I-E-W-L-Aib-A-G-G-P-S-S-G-A-P-P-P-S-NH2], the EC50 (Table 6) was 1 pM.

`CCCCCCCCCCCCCCCC(=O)N[C@@H](CCC(=O)N[C@@H](CCC(=O)NCCCC[C@H](NC(=O)[C@H](CCC(N)=O)NC(=O)[C@H](CCCCN)NC(=O)[C@H](CO)NC(=O)[C@H](CC(C)C)NC(=O)[C@H](CC(=O)O)NC(=O)[C@H](CO)NC(=O)[C@@H](NC(=O)[C@H](Cc1ccccc1)NC(=O)[C@@H](NC(=O)CNC(=O)[C@H](CCC(N)=O)NC(=O)[C@H](CO)NC(=O)[C@@H](N)Cc1c[nH]cn1)[C@@H](C)O)[C@@H](C)O)C(=O)N[C@@H](CC(=O)O)C(=O)N[C@@H](CCC(=O)O)C(=O)N[C@@H](CCC(=O)O)C(=O)N[C@@H](C)C(=O)N[C@@H](C)C(=O)N[C@@H](CCCNC(=N)N)C(=O)N[C@@H](CC(C)C)C(=O)N[C@@H](Cc1ccccc1)C(=O)N[C@H](C(=O)N[C@@H](CCC(=O)O)C(=O)N[C@@H](Cc1c[nH]c2ccccc12)C(=O)N[C@@H](CC(C)C)C(=O)N[C@@H](CCCCN)C(=O)N[C@@H](C)C(=O)NCC(=O)NCC(=O)N1CCC[C@H]1C(=O)N[C@@H](CO)C(=O)N[C@@H](CO)C(=O)NCC(=O)N[C@@H](C)C(=O)N1CCC[C@H]1C(=O)N1CCC[C@H]1C(=O)N1CCC[C@H]1C(=O)N[C@@H](CO)C(N)=O)[C@@H](C)CC)C(=O)O)C(=O)O` [SEQ ID NO: 33, H-S-Q-G-T-F-T-S-D-L-S-K-Q-K(γE-γE-x53)-DEEAARLFIEWLKAGGPSSGAPPPS-NH2, reference compound] was tested, and the EC50 (Table 8, comparison Aib vs. Lys in position 27) was 1 pM.

With `CCCCCCCCCCCCCCCC(=O)N[C@@H](CCC(=O)N[C@@H](CCC(=O)NCCCC[C@H](NC(=O)[C@H](CCC(N)=O)NC(=O)[C@H](CCCCN)NC(=O)[C@H](CO)NC(=O)[C@H](CC(C)C)NC(=O)[C@H](CC(=O)O)NC(=O)[C@H](CO)NC(=O)[C@@H](NC(=O)[C@H](Cc1ccccc1)NC(=O)[C@@H](NC(=O)CNC(=O)[C@H](CCC(N)=O)NC(=O)[C@@H](CO)NC(=O)[C@@H](N)Cc1c[nH]cn1)[C@@H](C)O)[C@@H](C)O)C(=O)N[C@@H](CC(=O)O)C(=O)N[C@@H](CCC(=O)O)C(=O)N[C@@H](CCC(=O)O)C(=O)N[C@@H](C)C(=O)N[C@H](C(=O)N[C@@H](CCCNC(=N)N)C(=O)N[C@@H](CC(C)C)C(=O)N[C@@H](Cc1ccccc1)C(=O)N[C@H](C(=O)N[C@@H](CCC(=O)O)C(=O)N[C@@H](Cc1c[nH]c2ccccc12)C(=O)N[C@@H](CC(C)C)C(=O)NC(C)(C)C(=O)N[C@@H](C)C(=O)NCC(=O)NCC(=O)N1CCC[C@H]1C(=O)N[C@@H](CO)C(=O)N[C@@H](CO)C(=O)NCC(=O)N[C@@H](C)C(=O)N1CCC[C@H]1C(=O)N1CCC[C@H]1C(=O)N1CCC[C@H]1C(=O)N[C@@H](CO)C(N)=O)[C@@H](C)CC)C(C)C)C(=O)O)C(=O)O` [SEQ ID NO: 17, H-dSer-Q-G-T-F-T-S-D-L-S-K-Q-K(γE-γE-x53)-D-E-E-A-V-R-L-F-I-E-W-L-Aib-A-G-G-P-S-S-G-A-P-P-P-S-NH2] the EC50 (Table 6) was 2.4 pM.

Compound `CCCCCCCCCCCCCCCC(=O)N[C@@H](CCC(=O)N[C@@H](CCC(=O)NCCCC[C@H](NC(=O)[C@H](CCC(N)=O)NC(=O)[C@H](CCCCN)NC(=O)[C@H](CO)NC(=O)[C@H](CC(C)C)NC(=O)[C@H](CC(=O)O)NC(=O)[C@H](CO)NC(=O)[C@@H](NC(=O)[C@H](Cc1ccccc1)NC(=O)[C@@H](NC(=O)CNC(=O)[C@H](Cc1c[nH]cn1)NC(=O)[C@@H](CO)NC(=O)[C@@H](N)Cc1c[nH]cn1)[C@@H](C)O)[C@@H](C)O)C(=O)N[C@@H](CCC(=O)O)C(=O)N[C@@H](CCC(=O)O)C(=O)N[C@@H](CCC(=O)O)C(=O)N[C@@H](C)C(=O)N[C@@H](C)C(=O)N[C@@H](CCCNC(=N)N)C(=O)N[C@@H](CC(C)C)C(=O)N[C@@H](Cc1ccccc1)C(=O)N[C@H](C(=O)N[C@@H](CCC(=O)O)C(=O)N[C@@H](Cc1c[nH]c2ccccc12)C(=O)N[C@@H](CC(C)C)C(=O)NC(C)(C)C(=O)N[C@@H](CCCCN)C(=O)N[C@H](C)C(=O)NCC(=O)N1CCC[C@H]1C(=O)N[C@@H](CO)C(=O)N[C@@H](CO)C(=O)NCC(=O)N[C@@H](C)C(=O)N1CCC[C@H]1C(=O)N1CCC[C@H]1C(=O)N1CCC[C@H]1C(=O)N[C@@H](CO)C(N)=O)[C@@H](C)CC)C(=O)O)C(=O)O` [SEQ ID NO: 27, H-dSer-H-G-T-F-T-S-D-L-S-K-Q-K(γE-γE-x53)-E-E-E-A-A-R-L-F-I-E-W-L-Aib-K-dAla-G-P-S-S-G-A-P-P-P-S-NH2] has an EC50 (Table 6) of 2.1 pM.

With `CCCCCCCCCCCCCCCCCC(=O)N[C@@H](CCC(=O)NCCCC[C@H](NC(=O)[C@H](CCC(N)=O)NC(=O)[C@H](CCCCN)NC(=O)[C@H](CO)NC(=O)[C@H](CC(C)C)NC(=O)[C@H](CC(=O)O)NC(=O)[C@H](CO)NC(=O)[C@@H](NC(=O)[C@H](Cc1ccccc1)NC(=O)[C@@H](NC(=O)CNC(=O)[C@H](Cc1c[nH]cn1)NC(=O)[C@@H](CO)NC(=O)[C@@H](N)Cc1c[nH]cn1)[C@@H](C)O)[C@@H](C)O)C(=O)N[C@@H](CC(=O)O)C(=O)N[C@@H](CCC(=O)O)C(=O)N[C@@H](CCC(=O)O)C(=O)N[C@@H](C)C(=O)N[C@@H](C)C(=O)N[C@@H](CCCNC(=N)N)C(=O)N[C@@H](CC(C)C)C(=O)N[C@@H](Cc1ccccc1)C(=O)N[C@H](C(=O)N[C@@H](CCC(=O)O)C(=O)N[C@@H](Cc1c[nH]c2ccccc12)C(=O)N[C@@H](CC(C)C)C(=O)NC(C)(C)C(=O)N[C@@H](C)C(=O)NCC(=O)NCC(=O)N1CCC[C@H]1C(=O)N[C@@H](CO)C(=O)N[C@@H](CO)C(=O)NCC(=O)N[C@@H](C)C(=O)N1CCC[C@H]1C(=O)N1CCC[C@H]1C(=O)N1CCC[C@H]1C(=O)N[C@@H](CO)C(N)=O)[C@@H](C)CC)C(=O)O` [SEQ ID NO: 8, H-dSer-H-G-T-F-T-S-D-L-S-K-Q-K(γE-x70)-D-E-E-A-A-R-L-F-I-E-W-L-Aib-A-G-G-P-S-S-G-A-P-P-P-S-NH2] the EC50 (Table 6) was 1.8 pM.

Reference: patent US9758561B2 (priority 2014, dated 2017)
